Source: EPA's ToxRefDB 2

What was measured:
rat [1] = conditions: Sub-acute repeat dose toxicity, sprague dawley, Oral, Gavage/Intubation, dose end: 28 day, group: systemic
rat [2] = conditions: Chronic toxicity; sprague dawley; Oral; Gavage/Intubation; dose end: 181 day; group: systemic; systemic / in life observation / body weight / body weight gain + systemic / hematology / reticulocyte / reticulocyte + systemic / pathology…
rat [3] = conditions: Prenatal developmental toxicity study, sprague dawley, Oral, Gavage/Intubation, dose end: 18 GD
mouse [4] = conditions: Subchronic oral toxicity in rodents, Gavage/Intubation, dose end: 91 day, group: systemic, systemic / in life observation / body weight / body weight gain + systemic / organ weight / heart / absolute + systemic / organ weight / …
primate = conditions: Sub-acute repeat dose toxicity; Oral; Gavage/Intubation; dose end: 6 day; group: systemic; systemic / in life observation / clinical signs / arrhythmia + systemic / in life observation / clinical signs / emesis + systemic / in life…
dog [5] = conditions: Sub-acute repeat dose toxicity; beagle; Oral; Gavage/Intubation; dose end: 30 day; group: systemic; systemic / in life observation / body weight / body weight gain + systemic / organ weight / liver / absolute + systemic / organ weight / …
rabbit [6] = conditions: Sub-acute repeat dose toxicity; Oral; Gavage/Intubation; dose end: 5 day; group: systemic; systemic / in life observation / body weight / body weight + systemic / in life observation / clinical signs / [other] + systemic / in life …
mouse [7] = conditions: Sub-acute repeat dose toxicity; Oral; Gavage/Intubation; dose end: 29 day; group: systemic; systemic / clinical chemistry / glucose / glucose + systemic / clinical chemistry / urea nitrogen / urea + systemic / hematology / leukocyte…
dog [8] = conditions: Chronic toxicity, beagle, Oral, Gavage/Intubation, dose end: 363 day, group: systemic
rat [9] = conditions: Sub-acute repeat dose toxicity; sprague dawley; Oral; Feed; dose end: 15 day; group: systemic; systemic / in life observation / body weight / body weight + systemic / in life observation / food consumption / food consumption
mouse [10] = conditions: Carcinogenicity, cd1, Oral, Feed, dose end: 78 week, group: systemic
rabbit [11] = conditions: Prenatal developmental toxicity study, himalayan, Dermal, Topical, dose end: 19 GD
mouse [12] = conditions: Subchronic oral toxicity in rodents, cd1, Feed, dose end: 13 week, group: systemic
dog [13] = conditions: Subchronic oral toxicity in nonrodent, beagle, Capsule, dose end: 13 week, group: systemic
rat [14] = conditions: Multigenerational reproductive toxicity study, sprague dawley, Oral, Feed, dose end: 2 generation
dog [15] = conditions: Chronic toxicity; beagle; Oral; Capsule; dose end: 1 year; group: systemic; systemic / in life observation / body weight / body weight gain + systemic / in life observation / clinical signs / emesis + systemic / in …
rat [16] = conditions: Prenatal developmental toxicity study, sprague dawley, Oral, Gavage/Intubation, dose end: 15 GD
dog [17] = conditions: Chronic toxicity; beagle; Oral; Capsule; dose end: 1 year; group: systemic; systemic / in life observation / body weight / body weight gain + systemic / in life observation / clinical signs / emesis + systemic / in …; remark: listed apart in the source
rat [18] = conditions: Combined chronic toxicity/carcinogenicity, sprague dawley, Oral, Feed, dose end: 104 week, group: systemic
rat [19] = conditions: Subchronic oral toxicity in rodents, other, Feed, dose end: 13 week
[20] = systemic / in life observation / body weight / body weight gain + systemic / in life observation / food consumption / food consumption
[21] = systemic / in life observation / body weight / body weight gain + systemic / in life observation / food consumption / food consumption + …
[22] = group: developmental, developmental / developmental malformation / bone / full supernumerary
[23] = group: maternal, systemic / in life observation / body weight / body weight + systemic / in life observation / food consumption / food consumption
[24] = systemic / in life observation / body weight / body weight gain + systemic / organ weight / liver / absolute + systemic / pathology …
[25] = systemic / organ weight / kidney / absolute + systemic / clinical chemistry / alkaline phosphatase (alp/alk) / alkaline phosphatase (alp/alk…
[26] = systemic / in life observation / body weight / body weight gain + systemic / in life observation / food consumption / food efficiency + …
[27] = systemic / organ weight / brain / relative to body weight
[28] = group: developmental, developmental / developmental malformation / bone / incomplete ossification
[29] = group: maternal, systemic / in life observation / clinical signs / erythema + systemic / in life observation / clinical signs / scabbing + systemic / …
[30] = systemic / clinical chemistry / glucose / glucose
[31] = systemic / in life observation / body weight / body weight gain + systemic / in life observation / clinical signs / emesis + systemic / in …
[32] = systemic / in life observation / clinical signs / soft stools + systemic / in life observation / food consumption / food consumption
[33] = group: offspring, systemic / in life observation / body weight / offspring (pup) weight
[34] = group: parental, systemic / in life observation / body weight / body weight + systemic / in life observation / body weight / body weight gain + systemic / in…
[35] = group: developmental, developmental / developmental malformation / bone / incomplete ossification + systemic / in life observation / body weight / fetal weight
[36] = group: maternal, systemic / in life observation / body weight / body weight gain + systemic / in life observation / food consumption / food consumption
[37] = group: maternal, systemic / in life observation / body weight / body weight gain + systemic / in life observation / food consumption / food consumption + …
[38] = systemic / clinical chemistry / alanine aminotransferase (alt/sgpt) / alanine aminotransferase (alt/sgpt) + systemic / in life observation…
[39] = group: cholinesterase, cholinesterase / cholinesterase / cholinesterase / cholinesterase (che)
[40] = group: systemic, systemic / clinical chemistry / urea nitrogen / urea nitrogen

SMILES: CN1N=C2CCN(C(=O)[C@@H](COCc3ccccc3)NC(=O)C(C)(C)N)C[C@@]2(Cc2ccccc2)C1=O [Capromorelin]
- LEL (rat [1]; [20]): 1 mg/kg/day
- NEL (rat [1]; [20]): < 1 mg/kg/day
- LOAEL (rat [1]; [21]): > 75 mg/kg/day
- NOAEL (rat [1]; [21]): ≥ 75 mg/kg/day
- LEL (rat [2]): 1 mg/kg/day
- LOAEL (rat [2]): > 75 mg/kg/day
- NEL (rat [2]): < 1 mg/kg/day
- NOAEL (rat [2]): ≥ 75 mg/kg/day
- LOAEL (rat [3]; [22]): > 75 mg/kg/day
- NEL (rat [3]; [22]): < 1 mg/kg/day
- NOAEL (rat [3]; [22]): ≥ 75 mg/kg/day
- LOAEL (rat [3]; [23]): > 75 mg/kg/day
- NOAEL (rat [3]; [23]): ≥ 75 mg/kg/day
- LEL (mouse [4]): 30 mg/kg/day
- LOAEL (mouse [4]): > 300 mg/kg/day
- NEL (mouse [4]): < 30 mg/kg/day
- NOAEL (mouse [4]): ≥ 300 mg/kg/day
- LEL (primate): 1 mg/kg/day
- LOAEL (primate): > 3 mg/kg/day
- NEL (primate): < 1 mg/kg/day
- NOAEL (primate): ≥ 3 mg/kg/day
- LEL (dog [5]): 40 mg/kg/day
- LOAEL (dog [5]): > 40 mg/kg/day
- NEL (dog [5]): 7 mg/kg/day
- NOAEL (dog [5]): ≥ 40 mg/kg/day
- LOAEL (rabbit [6]): > 150 mg/kg/day
- NEL (rabbit [6]): 50 mg/kg/day
- NOAEL (rabbit [6]): ≥ 150 mg/kg/day
- LEL (mouse [7]): 3 mg/kg/day
- LOAEL (mouse [7]): > 300 mg/kg/day
- NEL (mouse [7]): < 3 mg/kg/day
- NOAEL (mouse [7]): ≥ 300 mg/kg/day
- LEL (dog [8]; [24]): 7 mg/kg/day
- NEL (dog [8]; [24]): < 7 mg/kg/day
- LOAEL (dog [8]; [25]): > 40 mg/kg/day
- NOAEL (dog [8]; [25]): ≥ 40 mg/kg/day
- LEL (rat [9]): 1200 mg/kg/day
- LOAEL (rat [9]): > 1200 mg/kg/day
- NOAEL (rat [9]): ≥ 1200 mg/kg/day

SMILES: CC(C)(C)c1ccc(CSc2cnn(C(C)(C)C)c(=O)c2Cl)cc1 [Pyridaben]
- LOAEL (mouse [10]; [26]): 8.88 mg/kg/day
- NOAEL (mouse [10]; [26]): 2.78 mg/kg/day
- LEL (mouse [10]; [27]): 0.26 mg/kg/day
- NEL (mouse [10]; [27]): < 0.26 mg/kg/day
- LEL (rabbit [11]; [28]): 450 mg/kg/day
- LOAEL (rabbit [11]; [28]): 450 mg/kg/day
- NEL (rabbit [11]; [28]): 170 mg/kg/day
- NOAEL (rabbit [11]; [28]): 170 mg/kg/day
- LEL (rabbit [11]; [29]): 70 mg/kg/day
- LOAEL (rabbit [11]; [29]): 70 mg/kg/day
- NEL (rabbit [11]; [29]): < 70 mg/kg/day
- NOAEL (rabbit [11]; [29]): < 70 mg/kg/day
- LEL (mouse [12]; [30]): 4.07 mg/kg/day
- NEL (mouse [12]; [30]): < 4.07 mg/kg/day
- LOAEL (mouse [12]; systemic / in life observation / body weight / body weight gain): 13 mg/kg/day
- NOAEL (mouse [12]; systemic / in life observation / body weight / body weight gain + systemic / clinical chemistry / alkaline phosphatase (alp/alk) / alkaline …): 4.07 mg/kg/day
- LOAEL (dog [13]; [31]): 4 mg/kg/day
- NOAEL (dog [13]; [31]): 1 mg/kg/day
- LEL (dog [13]; [32]): 0.5 mg/kg/day
- NEL (dog [13]; [32]): < 0.5 mg/kg/day
- LEL (rat [14]; [33]): 6.31 mg/kg/day
- LOAEL (rat [14]; [33]): > 6.31 mg/kg/day
- NEL (rat [14]; [33]): 2.2 mg/kg/day
- NOAEL (rat [14]; [33]): ≥ 6.31 mg/kg/day
- LOAEL (rat [14]; [34]): 6.31 mg/kg/day
- NOAEL (rat [14]; [34]): 2.2 mg/kg/day
- LEL (rat [14]; group: parental, systemic / organ weight / ovary / absolute): 2.41 mg/kg/day
- NEL (rat [14]; group: parental, systemic / organ weight / ovary / absolute + systemic / in life observation / body weight / body weight + systemic / in life observation / …): 0.94 mg/kg/day
- LEL (dog [15]): 0.5 mg/kg/day
- LOAEL (dog [15]): 0.5 mg/kg/day
- NEL (dog [15]): < 0.5 mg/kg/day
- NOAEL (dog [15]): < 0.5 mg/kg/day
- LEL (rat [16]; [35]): 30 mg/kg/day
- LOAEL (rat [16]; [35]): 30 mg/kg/day
- NEL (rat [16]; [35]): 13 mg/kg/day
- NOAEL (rat [16]; [35]): 13 mg/kg/day
- LEL (rat [16]; [36]): 13 mg/kg/day
- LOAEL (rat [16]; [36]): 13 mg/kg/day
- NEL (rat [16]; [37]): 5.7 mg/kg/day
- NOAEL (rat [16]; [37]): 5.7 mg/kg/day
- LEL (dog [17]): 1 mg/kg/day
- LOAEL (dog [17]): 1 mg/kg/day
- NEL (dog [17]): < 1 mg/kg/day
- NOAEL (dog [17]): < 1 mg/kg/day
- LOAEL (rat [18]; [38]): 5 mg/kg/day
- NEL (rat [18]; [38]): 0.4 mg/kg/day
- LEL (rat [18]; systemic / urinalysis / volume / volume): 1.13 mg/kg/day
- LEL (rat [19]; [39]): 27.7 mg/kg/day
- LOAEL (rat [19]; [39]): > 27.7 mg/kg/day
- NEL (rat [19]; [39]): 12.8 mg/kg/day
- NOAEL (rat [19]; [39]): ≥ 27.7 mg/kg/day
- LEL (rat [19]; [40]): 2.3 mg/kg/day
- NEL (rat [19]; [40]): < 2.3 mg/kg/day
- LOAEL (rat [19]; group: systemic, systemic / in life observation / body weight / body weight gain + systemic / in life observation / food consumption / food efficiency): 5.53 mg/kg/day
- NOAEL (rat [19]; group: systemic, systemic / in life observation / body weight / body weight gain + systemic / in life observation / food consumption / food efficiency + …): 2.64 mg/kg/day
